# Laboratory results reported in patent US11192891B2, “Diazaspiro ROCK inhibitors” (BRISTOL-MYERS SQUIBB COMPANY, priority 2017, dated 2021).
# Target: ROCK2 (Homo sapiens, UniProt O75116)
# Test: ROCK kinase inhibition assay, FITC peptide substrate, LABCHIP 3000 readout
# Assay type: biochemical
# Details: 5 μM ATP, 1.5 μM peptide substrate
# Method in brief: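 Rho kinase variants started the reaction with compound present (DMSO <2%); after incubation, EDTA stop, and phosphorylated and non-phosphorylated peptide separated by microfluidic electrophoresis. Dose-response format, inhibition calculated at each concentration.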
# ROCK2, sequence (O75116 whole entry, species assumed): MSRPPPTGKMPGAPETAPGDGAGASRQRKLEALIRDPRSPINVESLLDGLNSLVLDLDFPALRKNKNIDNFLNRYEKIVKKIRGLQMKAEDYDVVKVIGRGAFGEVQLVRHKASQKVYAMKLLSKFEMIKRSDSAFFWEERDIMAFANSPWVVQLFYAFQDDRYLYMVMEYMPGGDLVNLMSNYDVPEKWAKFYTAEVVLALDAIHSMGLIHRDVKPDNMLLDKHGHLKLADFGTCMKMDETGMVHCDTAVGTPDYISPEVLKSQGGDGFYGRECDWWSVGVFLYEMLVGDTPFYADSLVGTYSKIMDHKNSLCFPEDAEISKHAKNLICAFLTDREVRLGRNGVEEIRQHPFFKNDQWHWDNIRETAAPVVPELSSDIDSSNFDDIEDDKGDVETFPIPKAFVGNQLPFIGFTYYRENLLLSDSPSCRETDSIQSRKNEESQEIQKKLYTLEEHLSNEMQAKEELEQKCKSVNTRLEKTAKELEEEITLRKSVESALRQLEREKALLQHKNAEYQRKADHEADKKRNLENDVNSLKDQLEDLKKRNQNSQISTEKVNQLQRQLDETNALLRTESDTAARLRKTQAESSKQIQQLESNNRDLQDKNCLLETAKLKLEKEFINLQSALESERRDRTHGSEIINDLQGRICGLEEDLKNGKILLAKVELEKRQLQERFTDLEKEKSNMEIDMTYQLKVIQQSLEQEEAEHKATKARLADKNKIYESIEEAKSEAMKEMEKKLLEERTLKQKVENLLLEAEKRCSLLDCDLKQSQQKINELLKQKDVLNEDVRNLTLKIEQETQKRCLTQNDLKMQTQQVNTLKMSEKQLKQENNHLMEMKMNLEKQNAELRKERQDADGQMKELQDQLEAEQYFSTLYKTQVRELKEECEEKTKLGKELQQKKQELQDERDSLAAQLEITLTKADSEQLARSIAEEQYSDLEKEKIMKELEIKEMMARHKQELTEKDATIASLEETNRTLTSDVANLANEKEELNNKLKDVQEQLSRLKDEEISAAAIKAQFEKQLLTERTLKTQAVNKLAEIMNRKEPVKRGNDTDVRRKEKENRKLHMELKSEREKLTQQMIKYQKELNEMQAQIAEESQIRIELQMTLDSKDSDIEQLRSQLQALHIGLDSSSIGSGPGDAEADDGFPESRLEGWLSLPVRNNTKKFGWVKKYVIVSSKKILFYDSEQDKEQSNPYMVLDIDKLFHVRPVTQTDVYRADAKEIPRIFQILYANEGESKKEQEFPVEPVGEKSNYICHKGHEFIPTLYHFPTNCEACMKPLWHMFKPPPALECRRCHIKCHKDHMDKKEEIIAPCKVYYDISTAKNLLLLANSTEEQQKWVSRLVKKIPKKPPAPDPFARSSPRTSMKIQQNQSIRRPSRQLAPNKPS
row,Structure (SMILES),IC50
1,"COc1cc(N2CCC3(CCN(C(=O)c4csnn4)CC3)C2=O)ccc1-c1cn[nH]c1 [Example 77, 2-[3-methoxy-4-(1H-pyrazol-4-yl)phenyl]-8-(1,2,3-thiadiazole-4-carbonyl)-2,8-diazaspiro[4.5]decan-1-one]",453 nM
2,"COc1cc(N2CCC3(CCN(C(=O)c4csc(-c5cccnc5)n4)CC3)C2=O)ccc1-c1cn[nH]c1 [Example 78, 2-[3-methoxy-4-(1H-pyrazol-4-yl)phenyl]-8-[2-(pyridin-3-yl)-1,3-thiazole-4-carbonyl]-2,8-diazaspiro[4.5]decan-1-one]",76 nM
3,"COc1cc(N2CCC3(CCN(C(=O)c4cnc(C)cn4)CC3)C2=O)ccc1-c1cn[nH]c1 [Example 79, 2-[3-methoxy-4-(1H-pyrazol-4-yl)phenyl]-8-(5-methylpyrazine-2-carbonyl)-2,8-diazaspiro[4.5]decan-1-one]",110 nM
4,"COc1ccc(C(=O)N2CCC3(CC2)CCN(c2ccc(-c4cn[nH]c4)c(OC)c2)C3=O)c(OC)n1 [Example 80, 8-(2,6-dimethoxypyridine-3-carbonyl)-2-[3-methoxy-4-(1H-pyrazol-4-yl)phenyl]-2,8-diazaspiro[4.5]decan-1-one]",99 nM
5,"COc1cc(N2CCC3(CCN(C(=O)c4cnc5n(c4=O)CCS5)CC3)C2=O)ccc1-c1cn[nH]c1 [Example 81, 2-[3-methoxy-4-(1H-pyrazol-4-yl)phenyl]-8-{5-oxo-2H,3H,5H-[1,3]thiazolo[3,2-a]pyrimidine-6-carbonyl}-2,8-diazaspiro[4.5]decan-1-one]",57 nM
6,"COc1cc(N2CCC3(CCN(C(=O)c4cc(C)cs4)CC3)C2=O)ccc1-c1cn[nH]c1 [Example 82, 2-[3-methoxy-4-(1H-pyrazol-4-yl)phenyl]-8-(4-methylthiophene-2-carbonyl)-2,8-diazaspiro[4.5]decan-1-one]",109 nM
7,COc1cc(N2CCC3(CCN(C(=O)c4ccc5ncsc5c4)CC3)C2=O)ccc1-c1cn[nH]c1 [Example 83],26 nM
8,"COc1cc(N2CCC3(CCN(C(=O)c4csc(-c5ccccc5)n4)CC3)C2=O)ccc1-c1cn[nH]c1 [Example 84, 2-[3-methoxy-4-(1H-pyrazol-4-yl)phenyl]-8-(2-phenyl-1,3-thiazole-4-carbonyl)-2,8-diazaspiro[4.5]decan-1-one]",138 nM
9,"COc1cc(N2CCC3(CCN(C(=O)c4ccc(-c5ccccc5)o4)CC3)C2=O)ccc1-c1cn[nH]c1 [Example 85, 2-[3-methoxy-4-(1H-pyrazol-4-yl)phenyl]-8-(5-phenylfuran-2-carbonyl)-2,8-diazaspiro[4.5]decan-1-one]",851 nM
10,"COc1cc(N2CCC3(CCN(C(=O)c4cscn4)CC3)C2=O)ccc1-c1cn[nH]c1 [Example 86, 2-[3-methoxy-4-(1H-pyrazol-4-yl)phenyl]-8-(1,3-thiazole-4-carbonyl)-2,8-diazaspiro[4.5]decan-1-one]",443 nM
11,"COc1cc(N2CCC3(CCN(C(=O)c4ccc(C(F)(F)F)nc4)CC3)C2=O)ccc1-c1cn[nH]c1 [Example 87, 2-[3-methoxy-4-(1H-pyrazol-4-yl)phenyl]-8-[6-(trifluoromethyl)pyridine-3-carbonyl]-2,8-diazaspiro[4.5]decan-1-one]",557 nM
12,"COc1cc(N2CCC3(CCN(C(=O)c4ccc(NC(C)=O)cc4)CC3)C2=O)ccc1-c1cn[nH]c1 [Example 88, N-(4-{2-[3-methoxy-4-(1H-pyrazol-4-yl)phenyl]-1-oxo-2,8-diazaspiro[4.5]decane-8-carbonyl}phenyl)acetamide]",73 nM
13,"COc1cc(N2CCC3(CCN(C(=O)c4cccs4)CC3)C2=O)ccc1-c1cn[nH]c1 [Example 89, 2-[3-methoxy-4-(1H-pyrazol-4-yl)phenyl]-8-(thiophene-2-carbonyl)-2,8-diazaspiro[4.5]decan-1-one]",117 nM
14,"COc1cc(N2CCC3(CCN(C(=O)c4ncc(OC)c5ccccc45)CC3)C2=O)ccc1-c1cn[nH]c1 [Example 90, 2-[3-methoxy-4-(1H-pyrazol-4-yl)phenyl]-8-(4-methoxyisoquinoline-1-carbonyl)-2,8-diazaspiro[4.5]decan-1-one]",127 nM
15,"COc1cc(N2CCC3(CCN(C(=O)[C@@H]4C[C@H]4c4ccccc4)CC3)C2=O)ccc1-c1cn[nH]c1 [Example 91, 2-[3-methoxy-4-(1H-pyrazol-4-yl)phenyl]-8-[(1R,2R)-2-phenylcyclopropanecarbonyl]-2,8-diazaspiro[4.5]decan-1-one]",436 nM
16,"COc1cc(N2CCC3(CCN(C(=O)c4ccc(C(C)C)cc4)CC3)C2=O)ccc1-c1cn[nH]c1 [Example 92, 2-[3-methoxy-4-(1H-pyrazol-4-yl)phenyl]-8-[4-(propan-2-yl)benzoyl]-2,8-diazaspiro[4.5]decan-1-one]",12 nM
17,"COc1cc(N2CCC3(CCN(C(=O)c4cc5ncc(Br)cn5n4)CC3)C2=O)ccc1-c1cn[nH]c1 [Example 93, 8-{6-bromopyrazolo[1,5-a]pyrimidine-2-carbonyl}-2-[3-methoxy-4-(1H-pyrazol-4-yl)phenyl]-2,8-diazaspiro[4.5]decan-1-one]",5 nM

row,Structure (SMILES),IC50
1,"COc1cc(N2CCC3(CCN(C(=O)c4ccc(N5CCOCC5)cc4)CC3)C2=O)ccc1-c1cn[nH]c1 [Example 94, 2-[3-methoxy-4-(1H-pyrazol-4-yl)phenyl]-8-[4-(morpholin-4-yl)benzoyl]-2,8-diazaspiro[4.5]decan-1-one]",2 nM
2,"COc1cc(N2CCC3(CCN(C(=O)c4ccc(-n5ccnc5)cc4)CC3)C2=O)ccc1-c1cn[nH]c1 [Example 95, 8-[4-(1H-imidazol-1-yl)benzoyl]-2-[3-methoxy-4-(1H-pyrazol-4-yl)phenyl]-2,8-diazaspiro[4.5]decan-1-one]",13 nM
3,"COc1cc(N2CCC3(CCN(C(=O)c4cc[n+]([O-])cc4)CC3)C2=O)ccc1-c1cn[nH]c1 [Example 96, 4-{2-[3-methoxy-4-(1H-pyrazol-4-yl)phenyl]-1-oxo-2,8-diazaspiro[4.5]decane-8-carbonyl}pyridin-1-ium-1-olate]",1100 nM
4,"COc1cc(N2CCC3(CCN(C(=O)c4ccno4)CC3)C2=O)ccc1-c1cn[nH]c1 [Example 97, 2-[3-methoxy-4-(1H-pyrazol-4-yl)phenyl]-8-(1,2-oxazole-5-carbonyl)-2,8-diazaspiro[4.5]decan-1-one]",427 nM
5,"COc1cc(N2CCC3(CCN(C(=O)c4ccc(C(F)(F)F)cn4)CC3)C2=O)ccc1-c1cn[nH]c1 [Example 98, 2-[3-methoxy-4-(1H-pyrazol-4-yl)phenyl]-8-[5-(trifluoromethyl)pyridine-2-carbonyl]-2,8-diazaspiro[4.5]decan-1-one]",259 nM
6,"COc1ncc(C(=O)N2CCC3(CC2)CCN(c2ccc(-c4cn[nH]c4)c(OC)c2)C3=O)cn1 [Example 99, 2-[3-methoxy-4-(1H-pyrazol-4-yl)phenyl]-8-(2-methoxypyrimidine-5-carbonyl)-2,8-diazaspiro[4.5]decan-1-one]",464 nM
7,"COc1cc(N2CCC3(CCN(C(=O)c4cc(C5CC5)on4)CC3)C2=O)ccc1-c1cn[nH]c1 [Example 100, 8-(5-cyclopropyl-1,2-oxazole-3-carbonyl)-2-[3-methoxy-4-(1H-pyrazol-4-yl)phenyl]-2,8-diazaspiro[4.5]decan-1-one]",6 nM
8,"COc1cnc(C(=O)N2CCC3(CC2)CCN(c2ccc(-c4cn[nH]c4)c(OC)c2)C3=O)cn1 [Example 101, 2-[3-methoxy-4-(1H-pyrazol-4-yl)phenyl]-8-(5-methoxypyrazine-2-carbonyl)-2,8-diazaspiro[4.5]decan-1-one]",86 nM
9,"COc1cc(N2CCC3(CCN(C(=O)C4Cc5ccccc5O4)CC3)C2=O)ccc1-c1cn[nH]c1 (stereo not shown) [Example 102, 8-(2,3-dihydro-1-benzofuran-2-carbonyl)-2-[3-methoxy-4-(1H-pyrazol-4-yl)phenyl]-2,8-diazaspiro[4.5]decan-1-one]",1970 nM
10,"COc1cc(N2CCC3(CCN(C(=O)c4ccc(F)c(C)c4)CC3)C2=O)ccc1-c1cn[nH]c1 [Example 103, 8-(4-fluoro-3-methylbenzoyl)-2-[3-methoxy-4-(1H-pyrazol-4-yl)phenyl]-2,8-diazaspiro[4.5]decan-1-one]",96 nM
11,"COc1cc(N2CCC3(CCN(C(=O)c4cc(C)on4)CC3)C2=O)ccc1-c1cn[nH]c1 [Example 104, 2-[3-methoxy-4-(1H-pyrazol-4-yl)phenyl]-8-(5-methyl-1,2-oxazole-3-carbonyl)-2,8-diazaspiro[4.5]decan-1-one]",72 nM
12,"COc1cc(N2CCC3(CCN(C(=O)c4ccc(Oc5ncccn5)cc4)CC3)C2=O)ccc1-c1cn[nH]c1 [Example 105, 2-[3-methoxy-4-(1H-pyrazol-4-yl)phenyl]-8-[4-(pyrimidin-2-yloxy)benzoyl]-2,8-diazaspiro[4.5]decan-1-one]",78 nM
13,"COc1cc(N2CCC3(CCN(C(=O)c4ccc(-n5cncn5)cc4)CC3)C2=O)ccc1-c1cn[nH]c1 [Example 106, 2-[3-methoxy-4-(1H-pyrazol-4-yl)phenyl]-8-[4-(1H-1,2,4-triazol-1-yl)benzoyl]-2,8-diazaspiro[4.5]decan-1-one]",25 nM
14,"COc1cc(N2CCC3(CCN(C(=O)c4cc(C(F)(F)F)n(C)n4)CC3)C2=O)ccc1-c1cn[nH]c1 [Example 107, 2-[3-methoxy-4-(1H-pyrazol-4-yl)phenyl]-8-[1-methyl-S-(trifluoromethyl)-1H-pyrazole-3-carbonyl]-2,8-diazaspiro[4.5]decan-1-one]",67 nM
15,"CCc1ccc(C(=O)N2CCC3(CC2)CCN(c2ccc(-c4cn[nH]c4)c(OC)c2)C3=O)nc1 [Example 108, 8-(5-ethylpyridine-2-carbonyl)-2-[3-methoxy-4-(1H-pyrazol-4-yl)phenyl]-2,8-diazaspiro[4.5]decan-1-one]",12 nM
16,"COc1cc(N2CCC3(CCN(C(=O)c4cc(Cl)no4)CC3)C2=O)ccc1-c1cn[nH]c1 [Example 109, 8-(3-chloro-1,2-oxazole-5-carbonyl)-2-[3-methoxy-4-(1H-pyrazol-4-yl)phenyl]-2,8-diazaspiro[4.5]decan-1-one]",362 nM
17,"COc1cc(N2CCC3(CCN(C(=O)c4cc(C(C)C)n[nH]4)CC3)C2=O)ccc1-c1cn[nH]c1 [Example 110, 2-[3-methoxy-4-(1H-pyrazol-4-yl)phenyl]-8-[3-(propan-2-yl)-1H-pyrazole-5-carbonyl]-2,8-diazaspiro[4.5]decan-1-one]",34 nM
